Measurements: the CheMixHub ionic liquid set
± gives the uncertainty stated by the source.

Experiment: xn = mol fraction of the nth substance listed
Settings: 100 kPa

CN1CCCN(C)C1=O + CCCCCCCCn1cc[n+](C)c1.[Cl-]
viscosity [mPa·s]
Settings	288.15 K	293.15 K	298.15 K	303.15 K	308.15 K	313.15 K	318.15 K	323.15 K	328.15 K	333.15 K
x2 = 0	4 ± 0.16	3.51 ± 0.14	3.11 ± 0.13	2.78 ± 0.11	2.5 ± 0.1	2.266 ± 0.093	2.064 ± 0.085	1.891 ± 0.077	1.737 ± 0.071	1.595 ± 0.065
x2 = 0.0999	15.3 ± 0.71	12.48 ± 0.55	9.9 ± 0.43	8.46 ± 0.37	7.27 ± 0.31	6.32 ± 0.27	5.53 ± 0.24	4.88 ± 0.21	4.35 ± 0.18	3.9 ± 0.16
x2 = 0.1998	52.2 ± 2.4	40.6 ± 1.8	31.8 ± 1.4	25.6 ± 1.1	21.04 ± 0.91	17.5 ± 0.75	14.79 ± 0.63	12.66 ± 0.54	10.9 ± 0.46	9.46 ± 0.4
x2 = 0.2997	176 ± 10	128.8 ± 6.6	95.4 ± 4.4	78.6 ± 3.4	61.1 ± 2.6	48.4 ± 2	39 ± 1.6	31.9 ± 1.3	26.4 ± 1.1	21.86 ± 0.91
x2 = 0.4004	412 ± 32	287 ± 20	224 ± 14	163.5 ± 9	122 ± 6.1	93.5 ± 4.3	72.9 ± 3.1	57.5 ± 2.4	46.8 ± 1.9	38.3 ± 1.6
x2 = 0.4993	1016 ± 100	673 ± 61	463 ± 37	326 ± 23	248 ± 16	192 ± 11	144.4 ± 7.6	107.7 ± 5.1	84.2 ± 3.7	67.5 ± 2.8
x2 = 0.5981	2302 ± 300	1467 ± 170	972 ± 98	661 ± 59	462 ± 37	340 ± 24	250 ± 16	186 ± 11	143.4 ± 7.5	110.7 ± 5.3
x2 = 0.6984	–	–	1797 ± 220	1194 ± 130	815 ± 78	575 ± 49	412 ± 32	311 ± 22	233 ± 15	178 ± 10
x2 = 0.7997	–	–	–	1924 ± 240	1289 ± 140	890 ± 87	632 ± 56	458 ± 36	340 ± 24	257 ± 17
